Test results: patent US20110275699A1, “Treatment For Obesity And Diabetes” (University of California, priority 2010, published 2011)

Key:
DNA-PK [1] = assay: DNA-PK phosphorylation in treated 293 cells (western blotting); assay type: cell-based; details: 2 hrs
Procedure: (§1) C57BL/6J male mice (Jackson laboratory) were used at 7 wks of age unless specified. For fasting/feeding experiments, mice were fasted for 40 hrs and then fed a high carbohydrate, fat-free diet for indicated time periods. HepG2 cells were grown in DMEM supplemented with 10% fetal bovine serum and 100 units/ml penicillin/streptomycin. M059J and M059K were from ATCC and grown in the same medium containing 4 mg/ml glutamine. HepG2 cells were maintained in serum free media overnight prior to insulin treatment. For insulin treatment, HepG2 cells were treated with 100 nM insulin or DMSO for 30 min. 293FT cells in DMEM supplemented with 10% fetal bovine serum and 100 units/ml penicillin/streptomycin/neomycin or 293F cells in 293 Freestyle medium were transfected with expression constructs or siRNA (Santa Cruz) using lipofectamine 2000 (Invitrogen) or 293 Fectin (Invitrogen), respectively. 293 cells were treated with either control DMSO or OA at 1 uM and Taut at indicated concentrations for 2 hrs. […]
(§2) Therefore, Applicants tested the S262 phosphorylation status of USF-1 upon treatment with okadaic acid (OA), which is known to prevent dephosphorylation of DNA-PK (Douglas et al., 2001). […] Similarly, PP1 was not detected in nuclear extracts from control HepG2 cells but was increased upon insulin treatment (FIG. 3H, right panel). […]

USF-1 [2] = assay: K237 acetylation of USF-1 in cells (IP and western blotting); assay type: cell-based; details: OA-treated cells vs control cells
Procedure: as §1, with “respectively.” for “respectively. 293 cells were treated with either control DMSO or OA at 1 uM and Taut at indicated concentrations for 2 hrs.”
Since USF-1 is both phosphorylated and acetylated at nearby sites and these posttranslational modifications are critical for USF-1 function in FAS promoter activation, we tested whether an increase in S262 phosphorylation of USF-1 could affect K237 acetylation. […] Conversely, we detected a significant level of K237 acetylation of USF-1 in control cells, which was reduced in OA-treated cells (FIG. 5B, left panel, lane 2). […]

USF-1 [3] = assay: S262 phosphorylation of USF-1 in 293 cells (IP and western blotting); assay type: cell-based; details: 2 hrs
Procedure: as §1, with “hrs. Expression vectors for DNA-PK and mutants, HAT, HDAC9, PP1, Kus and −0.7 p53-Luc were from laboratories of Drs. Meek, Kouzarides, Zelent, Lamond, Shay and Oren respectively. siRNA for knockdown of DNA-PK is commercially available at Santa Cruz Biotechnology Inc.” for “hrs.”
Next S262 phosphorylation of USF-1 by DNA-PK in cultured cells was tested. […] Applicants detected higher S262 phosphorylation of USF-1 immunoprecipitated from cells overexpressing WT DNA-PK (FIG. 3B, left panel, lane 2), but not from cells expressing DNA-PK with T3950D mutation (FIG. 3B, lane 3) or control cells (FIG. 3B, lane 1). Furthermore, Applicants detected even higher S262 phosphorylation of USF-1 from cells expressing DNAPK with T3950A mutation compared to WT DNA-PK-expressing cells (FIG. 3B, middle panel, lane 3). […] WT USF-1, but not USF-1 containing S262A mutation, was detected to have higher phosphorylation upon cotransfection with DNA-PK (FIG. 3B, right panel, lanes 2 and 3). […]

USF-1 [4] = assay: USF-1 interaction (IP) and recruitment of proteins to the FAS promoter (ChIP) in 293 cells; assay type: cell-based; details: Taut at indicated concentrations for 2 hrs
Procedure: as §1, with “hrs. Expression vectors for DNA-PK and mutants, HAT, HDAC9, PP1, Kus and −0.7 p53-Luc were from laboratories of Drs.” for “hrs.”
Livers from fasted or fed mice were fixed with DSG at 2 mM for 45 min at RT before formaldehyde cross-linking Soluble chromatin was quantified by absorbance at 260 nm, and equivalent amounts of input DNA were immunoprecipitated. […]

USF-1 [5] = assay: USF-1 S262 phosphorylation/K237 acetylation in HepG2 cells with or without insulin; assay type: cell-based; details: HepG2, control siRNA-transfected cells, insulin 100 nM 30 min
Procedure: as §1, with “hrs. Expression vectors for DNA-PK and mutants, HAT, HDAC9, PP1, Kus and −0.7 p53-Luc were from laboratories of Drs. Meek, Kouzarides, Zelent, Lamond, Shay and Oren respectively. siRNA for knockdown of DNA-PK is commercially available at Santa Cruz Biotechnology Inc.” for “hrs.”

DNA-PK [6] = assay: DNA-PK phosphorylation in HepG2 cells with or without insulin; assay type: cell-based; details: insulin-treated HepG2 cells vs noninsulin-treated cells
Procedure: as §1, with “hrs. Expression vectors for DNA-PK and mutants, HAT, HDAC9, PP1, Kus and −0.7 p53-Luc were from laboratories of Drs.” for “hrs.”
DNA-PK activity is known to be regulated by phosphorylation/dephosphorylation, independent of its activation by DNA. […] DNA-PK phosphorylation was detected using phosphoserine/threonine antibodies that detect autophosphorylation at the S/TQ motifs of DNA-PK.

USF-1 [7] = assay: USF-1 modifications in M059K cells containing WT DNA-PK; assay type: cell-based, human; details: insulin 100 nM 30 min
Procedure: as §1, with “hrs. Expression vectors for DNA-PK and mutants, HAT, HDAC9, PP1, Kus and −0.7 p53-Luc were from laboratories of Drs. Meek, Kouzarides, Zelent, Lamond, Shay and Oren respectively. siRNA for knockdown of DNA-PK is commercially available at Santa Cruz Biotechnology Inc.” for “hrs.”

USF-1 [8] = assay: USF-1 modifications in M059J cells lacking DNA-PKcs; assay type: cell-based, human; details: insulin 100 nM 30 min
Procedure: as §1, with “hrs. Expression vectors for DNA-PK and mutants, HAT, HDAC9, PP1, Kus and −0.7 p53-Luc were from laboratories of Drs. Meek, Kouzarides, Zelent, Lamond, Shay and Oren respectively. siRNA for knockdown of DNA-PK is commercially available at Santa Cruz Biotechnology Inc.” for “hrs.”

PP1 = PP1 in nuclear extracts of HepG2 cells; assay type: cell-based; details: insulin treatment vs control
Procedure: as §1, §2

## C=C1[C@@H](O)[C@@H]2O[C@]3(CC[C@H](/C=C/[C@@H](C)[C@@H]4CC(C)=C[C@@]5(O[C@H](C[C@@](C)(O)C(=O)O)CC[C@H]5O)O4)O3)CC[C@H]2O[C@@H]1[C@@H](O)C[C@H](C)[C@H]1O[C@@]2(CCCCO2)CC[C@H]1C [OA, okadaic acid]
DNA-PK [1]; OA 1 uM, vs control DMSO
  phosphorylation of DNA-PK: greatly increased
USF-1 [2]
  K237 acetylation of USF-1: reduced
USF-1 [3]; OA 1 uM, vs control DMSO
  S262 phosphorylation of USF-1: hardly detectable

## CO[C@H]([C@H](O)CC(=O)[C@@H](C)[C@@H](O)CC[C@@H](C)[C@@H]1O[C@]2(CC[C@@H](C)[C@H](CC[C@H](C)C(C)=O)O2)CC[C@@H]1C)[C@H](OC(=O)C[C@@H](O)C1=C(C)C(=O)OC1=O)C(C)C [Taut, tautomycin]
USF-1 [4]
  USF-1 interaction and recruitment of various proteins: abolished
DNA-PK [1]; Taut 1 uM, vs control cells
  phosphorylated DNA-PK: easily detected
USF-1 [3]; Taut 10 nM
  S262 phosphorylation of USF-1: decreased
USF-1 [3]; Taut 1 uM
  S262 phosphorylation of USF-1: hardly detectable

## insulin
USF-1 [5]
  K237 acetylation of USF-1: markedly increased
  S262 phosphorylation of USF-1: markedly increased
DNA-PK [6]
  DNA-PK phosphorylation: not detectable
USF-1 [7]
  K237 acetylation of USF-1: increased
  S262 phosphorylation of USF-1: increased
USF-1 [8]
  USF modifications (S262 phosphorylation, K237 acetylation): did not result in any significant increase
PP1
  PP1 in nuclear extracts: increased
